Structures are written as SMILES.

From patent US11723877B2, “Microencapsulation process and product” (SPI PHARMA, INC., priority 2010, dated 2023) come the findings set out here.

Data set [1] is described as follows: Dissolution of orally dispersible ibuprofen powder, USP apparatus IV flow through cell, phosphate buffer pH 7.2. In kind it is physicochemical. To be noted: phosphate buffer pH 7.2, 37° C., 16 mL/min, 900 mL, ODP 200 mg, average of two. As to the method: A USP apparatus IV flow through cell was used to measure the dissolution of three orally dispersible powder blends of Ibuprofen. Powder blends were made up of: Example 6 (SPI Pharma); uncoated Ibuprofen 50 (BASF, Florham Park, N.J.); and Dasan Medichem (Soul, Korea) taste-masked Ibuprofen. Each sample was weighed and mixed by the process of spatulation until mixed. This mixture was passed through #30 mesh ASTM and packed in stick packs.
An amount of sample equivalent to contain 200 mg of Ibuprofen was weighed out and placed in the bead mixture of the flow through cell. At a rate of 16 ml/min, a 37° C. pH 7.2 phosphate buffer was pumped through cell and the effluent from the cell was collected in a reservoir vessel and samples removed for subsequent analysis in HPLC for Ibuprofen content at the time point specified. The data is an average of two determinations.

Data set [2] in a line: Acetaminophen dissolution, USP method (900 mL water, 50 rpm, Apparatus 2). Particulars: first of five data columns, no own time in head (taken as 0 min). In kind it is physicochemical. As to the method:
Acetaminophen dissolution was compared between microcapsules prepared from Run #2 and Run #4, an uncoated acetaminophen standard and a commercial acetaminophen coated with ethylcellulose by USP dissolution method for Acetaminophen (900 mL water, 50 rpm, Apparatus 2).

A short description of data set [3]: Dissolution of orally dispersible acetaminophen powder, USP apparatus IV flow through cell, phosphate buffer pH 5.8. In kind it is physicochemical. Particulars: phosphate buffer pH 5.8, 37° C., 16 mL/min, 900 mL, ODP 160 mg, average of two. An excerpt: A USP apparatus IV flow through cell was used to measure the dissolution of three orally dispersible powder blends of acetaminophen. Powder blends were made up of: Example 7 (SPI Pharma); uncoated Acetaminophen (Covidien, St. Louis, Mo.)) special granular; and Eurand (Dayton, Ohio) taste-masked Acetaminophen. Each sample was weighed and mixed by the process of spatulation until mixed. This mixture was passed through #30 mesh ASTM and packed in stick packs.
An amount of sample equivalent to contain 160 mg of Acetaminophen was weighed out and placed in the bead mixture of the flow through cell. At a rate of 16 ml/min, a 37° C. pH 5.8 phosphate buffer was pumped through cell and the effluent from the cell was collected in a reservoir vessel and samples removed for subsequent analysis in HPLC for Acetaminophen content at the time point specified. The data is an average of two determinations.

The nature of data set [4]: physchem. Particulars: aqueous buffer.

In the case of `CC(C)Cc1ccc(C(C)C(=O)O)cc1` (centres unmarked) [Plain API, Ibuprofen], the Ibuprofen dissolution % in data set [1] (5 min) was 70%; in data set [1] (10 min), 88%; in data set [1] (20 min) it was 91%; in data set [1] (30 min), 94%; in data set [1] (45 min) it was 94%; in data set [1] (60 min) it was 94%.

Turning to `CC(=O)Nc1ccc(O)cc1` [Uncoated Acetaminophen STD, Acetaminophen], the “Percent (%) Drug Released” value in data set [2] was 0%.

Consider `CC(=O)Nc1ccc(O)cc1` [Uncoated Acetaminophen, Acetaminophen], for which the Acetaminophen dissolution % in data set [3] (5 min) is reported as 95%; in data set [3] (10 min), 96%; in data set [3] (15 min), 96%; in data set [3] (30 min) it was 96%; in data set [3] (45 min), 96%; in data set [3] (60 min) it was 96%.

As usually defined, the solubility is the dissolved amount per volume that the medium holds. Read a high solubility as much dissolved substance. For `CC(C)Cc1ccc(C(C)C(=O)O)cc1` (centres unmarked) [uncoated ibuprofen, ibuprofen], the solubility in data set [4] is under 1000 µM.
